Reference: patent US10202361B2, “Pyridazinones as herbicides” (E I DU PONT DE NEMOURS AND COMPANY, priority 2014, dated 2019)
Where two headings read alike, the source gives them in different places.

Legend:
Assay type in all cases: in vivo
[1] = system: barnyardgrass (Echinochloa crus-galli); assay: Test A pre-/postemergence greenhouse herbicide test; settings: Echinochloa crus-galli, 240 h, 0 to 100 scale (0 no effect, 100 complete control), approx. 10 d, read-out: Plant response rating, Barnyardgrass; for pest or weed control at 125 g/ha: 125 g ai/ha; for pest or weed control at 500 g/ha: 500 g ai/ha
Summary of the method: (§1)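 Greenhouse pot test, loam/sand soil. Pre: directed soil spray at seeding; post: foliar spray, 1–2 leaf, 2–10 cm height, same day. Read-out ~10 d: visual % control, 0–100 scale vs untreated.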

corn (Zea mays) = assay: as above; settings: Zea mays, 240 h, 0 to 100 scale (0 no effect, 100 complete control), approx. 10 d; for Corn plant response rating (crop injury, 0 = no effect, 100 = complete kill) at 125 g/ha: 125 g ai/ha; for Corn plant response rating (crop injury, 0 = no effect, 100 = complete kill) at 500 g/ha: 500 g ai/ha
Summary of the method: as §1

[2] = system: crabgrass, Large (large crabgrass, Digitaria sanguinalis); assay: as above; settings: Digitaria sanguinalis, 240 h, 0 to 100 scale (0 no effect, 100 complete control), approx. 10 d, read-out: Plant response rating, Crabgrass, Large; for pest or weed control at 125 g/ha: 125 g ai/ha; for pest or weed control at 500 g/ha: 500 g ai/ha
Summary of the method: as §1

[3] = system: foxtail, giant (giant foxtail, Setaria faberii); assay: as above; settings: Setaria faberi, 240 h, 0 to 100 scale (0 no effect, 100 complete control), approx. 10 d, read-out: Plant response rating, Foxtail, Giant; for pest or weed control at 125 g/ha: 125 g ai/ha; for pest or weed control at 500 g/ha: 500 g ai/ha
Summary of the method: as §1

[4] = system: morningglory (Ipomoea spp.); assay: as above; settings: Ipomoea, post-emergence, 240 h, Postemergence, 0 to 100 scale (0 no effect, 100 complete control), approx. 10 d, read-out: Plant response rating, Morningglory
Summary of the method: as §1

[5] = system: pigweed (Amaranthus retroflexus); assay: as above; settings: Amaranthus retroflexus, 240 h, 0 to 100 scale (0 no effect, 100 complete control), approx. 10 d, read-out: Plant response rating, Pigweed; for pest or weed control at 125 g/ha: 125 g ai/ha; for pest or weed control at 500 g/ha: 500 g ai/ha
Summary of the method: as §1

[6] = system: velvetleaf (Abutilon theophrasti); assay: as above; settings: Abutilon theophrasti, 240 h, 0 to 100 scale (0 no effect, 100 complete control), approx. 10 d, read-out: Plant response rating, Velvetleaf; for pest or weed control at 125 g/ha: 125 g ai/ha; for pest or weed control at 500 g/ha: 500 g ai/ha
Summary of the method: as §1

[7] = system: wheat (Triticum aestivum); assay: as above; settings: Triticum aestivum, 240 h, 0 to 100 scale (0 no effect, 100 complete control), approx. 10 d, read-out: Plant response rating, Wheat; for plant injury at 125 g/ha: 125 g ai/ha; for plant injury at 500 g/ha: 500 g ai/ha
Summary of the method: as §1

[8] = system: wheat (winter wheat, Triticum aestivum); assay: Test C pre-/postemergence greenhouse herbicide test; settings: Triticum aestivum, Wheat, read-out: Plant response rating; for plant injury at 62 g/ha: 62 g ai/ha; for plant injury at 125 g/ha: 125 g ai/ha; for plant injury at 250 g/ha: 250 g ai/ha
Summary of the method: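 Seeds sown in loam soil–sand blend were treated preemergence; plants at 2 to 18 cm (1- to 4-leaf stage) in peat-based medium were treated postemergence. Test chemicals were formulated in a non-phytotoxic solvent mixture with surfactant. After 13 to 15 d in greenhouse, injury was rated visually versus controls, 0 (no effect) to 100 (complete control).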

[9] = system: surinam grass (Brachiaria decumbens); assay: Test E pre-/postemergence greenhouse herbicide test; settings: Preemergence, scale 0 to 100

With `COc1cc(=O)n(-c2ccc(F)cc2)nc1Cc1ccnc(C(F)(F)F)c1` [Compound 17, 2-(4-fluorophenyl)-5-methoxy-6-[[2-(trifluoromethyl)-4-pyridinyl]methyl]-3 (2H)-pyridazinone] the pest or weed control at 125 g/ha ([1]; post-emergence, Postemergence) was 80%, the pest or weed control at 500 g/ha ([1]; post-emergence, Postemergence) was 90% and the pest or weed control at 125 g/ha ([1]; pre-emergence, Preemergence) was 80%. For the same compound, the pest or weed control at 500 g/ha ([1]; pre-emergence, Preemergence) was 100%, the Corn plant response rating (crop injury, 0 = no effect, 100 = complete kill) at 125 g/ha (corn (Zea mays); post-emergence, Postemergence) was 60% and the Corn plant response rating (crop injury, 0 = no effect, 100 = complete kill) at 500 g/ha (corn (Zea mays); post-emergence, Postemergence) was 80%. For the same compound, the Corn plant response rating (crop injury, 0 = no effect, 100 = complete kill) at 125 g/ha (corn (Zea mays); pre-emergence, Preemergence) was 40%, the Corn plant response rating (crop injury, 0 = no effect, 100 = complete kill) at 500 g/ha (corn (Zea mays); pre-emergence, Preemergence) was 50% and the pest or weed control at 125 g/ha ([2]; post-emergence, Postemergence) was 90%. The pest or weed control at 500 g/ha ([2]; post-emergence, Postemergence) was 90%, the pest or weed control at 125 g/ha ([2]; pre-emergence, Preemergence) was 100% and the pest or weed control at 500 g/ha ([2]; pre-emergence, Preemergence) was 100%. It also gave a pest or weed control at 125 g/ha ([3]; post-emergence, Postemergence) of 90%, a pest or weed control at 500 g/ha ([3]; post-emergence, Postemergence) of 90% and a pest or weed control at 125 g/ha ([3]; pre-emergence, Preemergence) of 100%. The pest or weed control at 500 g/ha ([3]; pre-emergence, Preemergence) was 100%, the pest or weed control at 125 g/ha ([4]; 125 g ai/ha) was 100% and the pest or weed control at 500 g/ha ([4]; 500 g ai/ha) was 100%. It also gave a pest or weed control at 125 g/ha ([5]; post-emergence, Postemergence) of 100%, a pest or weed control at 500 g/ha ([5]; post-emergence, Postemergence) of 100% and a pest or weed control at 125 g/ha ([5]; pre-emergence, Preemergence) of 100%. It also gave a pest or weed control at 500 g/ha ([5]; pre-emergence, Preemergence) of 100%, a pest or weed control at 125 g/ha ([6]; post-emergence, Postemergence) of 100% and a pest or weed control at 500 g/ha ([6]; post-emergence, Postemergence) of 100%. The pest or weed control at 125 g/ha ([6]; pre-emergence, Preemergence) was 100%, the pest or weed control at 500 g/ha ([6]; pre-emergence, Preemergence) was 100% and the plant injury at 125 g/ha ([7]; post-emergence, Postemergence) was 60%. The plant injury at 500 g/ha ([7]; post-emergence, Postemergence) was 70%, the plant injury at 125 g/ha ([7]; pre-emergence, Preemergence) was 20% and the plant injury at 500 g/ha ([7]; pre-emergence, Preemergence) was 50%. It also gave a plant injury at 31 g/ha ([8]; post-emergence, Postemergence, 31 g ai/ha) of 5%, a plant injury at 62 g/ha ([8]; post-emergence, Postemergence) of 5% and a plant injury at 125 g/ha ([8]; post-emergence, Postemergence) of 5%. For the same compound, the plant injury at 250 g/ha ([8]; post-emergence, Postemergence) was 10%, the plant injury at 62 g/ha ([8]; pre-emergence, Preemergence) was 5% and the plant injury at 125 g/ha ([8]; pre-emergence, Preemergence) was 50%. For the same compound, the plant injury at 250 g/ha ([8]; pre-emergence, Preemergence) was 65%, the “Plant response rating: Surinam Grass” value ([9]; 16 g ai/ha) was 0 and the “Plant response rating: Surinam Grass” value ([9]; 31 g ai/ha) was 20. The “Plant response rating: Surinam Grass” value ([9]; 62 g ai/ha) was 65, the “Plant response rating: Surinam Grass” value ([9]; 125 g ai/ha) was 75 and the “Plant response rating: Surinam Grass” value ([9]; 250 g ai/ha) was 75.
